The source of these data is patent publication US9371320B2, “Heterocyclic compound” (TAKEDA PHARMACEUTICAL COMPANY LIMITED, priority 2012, dated 2016).

Each structure is given as a SMILES string.

The target in one assay is T1, JAK1 (Homo sapiens, UniProt P23458).
T1 construct: purchased Invitrogen
As to the kind of experiment: JAK1 enzyme inhibition test (LANCE method). The assay is classed as biochemical. The conditions noted are these: for inhibition at 10 µM: read-out: Inhibitory rate (%) JAK1 10 μM; for inhibition at 1 µM: test compound 1 μM, read-out: Inhibitory rate (%) JAK1 1 μM. The procedure:
JAK1 Enzyme Inhibition Test
(§1) JAK1 enzyme inhibitory activity of test compounds was measured by LANCE method (PerkinElmer). First, a test compound diluted with assay buffer (50 mM HEPES (pH=7.5), 10 mM MgCl2, 1 mM EGTA, 2 mM DTT, 0.01% Tween20, 0.01% BSA) was added to 384-well plate at 2 μL each. Then, a JAK1 (Invitrogen) solution and a fluorescence-labeled peptide substrate (ULight-JAK1, PerkinElmer) solution diluted with assay buffer at 187.5 ng/mL and 300 nM, respectively were added at 2 μL each. Then, enzyme reaction was started by adding 2 μL each of ATP solution prepared with assay buffer at 150 μM. After the reaction at room temperature for 1 hr, Detection Buffer (PerkinElmer) prepared to be 20 mM EDTA, 4 nM europium-labeled anti-phosphotyrosine antibody (PerkinElmer) was added at 6 μL each. After standing at room temperature for 1 hr, fluorescence intensity (excitation wavelength 340 nm, fluorescence wavelength 665 nm, delay time 100 microsecond) was measured by a plate reader, Envision (PerkinElmer). The inhibitory activity of each compound was calculated as relative value where fluorescence intensity of a well without enzyme is considered as 100% inhibition.
(In general: Time-resolved FRET reads energy transfer from a long-lived donor to a nearby acceptor.)

In another assay the target is T2, Tyk2 (Homo sapiens, UniProt P29597).
T2 construct: purchased Invitrogen
T2 sequence (P29597 whole entry): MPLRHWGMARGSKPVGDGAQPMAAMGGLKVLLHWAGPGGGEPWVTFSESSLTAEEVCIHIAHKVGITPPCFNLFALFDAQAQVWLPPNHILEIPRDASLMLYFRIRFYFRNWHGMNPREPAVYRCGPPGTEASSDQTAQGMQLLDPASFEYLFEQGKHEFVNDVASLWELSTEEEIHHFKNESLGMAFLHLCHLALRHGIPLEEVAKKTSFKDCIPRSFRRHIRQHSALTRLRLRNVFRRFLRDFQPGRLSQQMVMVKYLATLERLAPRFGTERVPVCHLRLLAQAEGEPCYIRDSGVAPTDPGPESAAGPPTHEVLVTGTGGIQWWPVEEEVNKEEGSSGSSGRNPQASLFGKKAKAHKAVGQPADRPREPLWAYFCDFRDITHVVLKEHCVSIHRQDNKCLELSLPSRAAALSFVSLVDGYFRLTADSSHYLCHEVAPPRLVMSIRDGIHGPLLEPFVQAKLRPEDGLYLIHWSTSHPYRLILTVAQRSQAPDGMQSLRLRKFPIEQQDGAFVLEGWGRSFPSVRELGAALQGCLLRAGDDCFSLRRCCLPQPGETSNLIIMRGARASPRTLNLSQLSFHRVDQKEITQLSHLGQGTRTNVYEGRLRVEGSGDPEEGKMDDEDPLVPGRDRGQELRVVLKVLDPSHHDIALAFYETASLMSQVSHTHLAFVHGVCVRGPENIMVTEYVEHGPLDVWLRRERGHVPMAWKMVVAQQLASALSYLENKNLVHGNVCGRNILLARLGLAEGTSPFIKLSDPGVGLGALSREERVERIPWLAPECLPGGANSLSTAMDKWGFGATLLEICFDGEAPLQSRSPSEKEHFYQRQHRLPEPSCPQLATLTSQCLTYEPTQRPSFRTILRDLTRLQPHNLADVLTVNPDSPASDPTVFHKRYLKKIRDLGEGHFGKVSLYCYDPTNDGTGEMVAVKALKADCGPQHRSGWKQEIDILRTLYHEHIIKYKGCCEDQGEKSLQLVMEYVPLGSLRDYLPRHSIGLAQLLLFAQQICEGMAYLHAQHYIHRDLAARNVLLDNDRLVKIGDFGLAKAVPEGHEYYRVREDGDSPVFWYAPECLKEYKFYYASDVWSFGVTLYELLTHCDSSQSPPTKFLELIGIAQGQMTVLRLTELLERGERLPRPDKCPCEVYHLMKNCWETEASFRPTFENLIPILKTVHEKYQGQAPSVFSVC
As to the kind of experiment: Tyk2 enzyme inhibition test (LANCE method). The assay is classed as biochemical. The conditions noted are these: test compound 1 μM; for inhibition at 1 µM: read-out: Inhibitory rate (%) Tyk2 1 μM. The procedure: Tyk2 Enzyme Inhibition Test
as §1, with “Tyk2 enzyme” for “JAK1 enzyme”, “a Tyk2” for “a JAK1”, “at 375” for “at 187.5”, “at 30” for “at 150”

Setting [1] is: test compound 10 μM (Ex. 182-220), beside Tyk2 1 μM.

T1 sequence (P23458 whole entry): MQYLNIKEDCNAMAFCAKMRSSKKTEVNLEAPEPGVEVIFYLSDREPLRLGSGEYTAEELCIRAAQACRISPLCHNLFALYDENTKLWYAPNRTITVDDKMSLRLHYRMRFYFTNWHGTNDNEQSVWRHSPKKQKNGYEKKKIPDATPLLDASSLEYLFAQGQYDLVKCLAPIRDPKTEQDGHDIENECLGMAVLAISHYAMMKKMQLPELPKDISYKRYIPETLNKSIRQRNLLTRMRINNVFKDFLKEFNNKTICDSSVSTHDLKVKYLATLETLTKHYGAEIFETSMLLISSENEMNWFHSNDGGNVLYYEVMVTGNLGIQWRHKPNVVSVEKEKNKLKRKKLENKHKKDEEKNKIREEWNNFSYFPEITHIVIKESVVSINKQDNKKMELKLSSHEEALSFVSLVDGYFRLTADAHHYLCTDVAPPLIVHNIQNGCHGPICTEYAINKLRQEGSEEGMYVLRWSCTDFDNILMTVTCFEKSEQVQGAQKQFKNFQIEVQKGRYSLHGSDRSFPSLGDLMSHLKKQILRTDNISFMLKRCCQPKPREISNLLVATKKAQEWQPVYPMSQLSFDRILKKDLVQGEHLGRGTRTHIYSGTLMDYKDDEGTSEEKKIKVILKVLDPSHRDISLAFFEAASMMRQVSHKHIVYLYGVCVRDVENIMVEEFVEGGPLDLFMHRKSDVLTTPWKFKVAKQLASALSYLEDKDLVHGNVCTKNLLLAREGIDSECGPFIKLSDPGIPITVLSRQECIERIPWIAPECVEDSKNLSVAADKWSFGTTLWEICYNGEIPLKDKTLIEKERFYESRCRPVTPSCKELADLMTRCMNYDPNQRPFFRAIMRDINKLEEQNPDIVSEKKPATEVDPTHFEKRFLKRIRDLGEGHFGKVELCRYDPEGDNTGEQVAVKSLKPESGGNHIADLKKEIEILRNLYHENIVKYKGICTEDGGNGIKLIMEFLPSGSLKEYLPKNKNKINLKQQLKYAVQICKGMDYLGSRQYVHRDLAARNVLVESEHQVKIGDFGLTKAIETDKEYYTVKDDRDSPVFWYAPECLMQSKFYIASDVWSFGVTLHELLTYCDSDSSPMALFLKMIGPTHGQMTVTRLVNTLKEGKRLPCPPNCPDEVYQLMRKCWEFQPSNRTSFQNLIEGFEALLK

For `O=c1[nH]ccc2c1c(-c1cn[nH]c1)nn2C1CCCC1` [Example 204, 1-cyclopentyl-3-(1H-pyrazol-4-yl)-1,5-dihydro-4H-pyrazolo[4,3-c]pyridin-4-one], the inhibition at 10 µM at JAK1 (setting [1]) stood at 98%. For the same molecule, the inhibition at 1 µM on Tyk2 amounted to 98%.

`O=c1[nH]ccc2c1c(-c1ccc(N3CCOCC3)cc1)nn2-c1c(F)cccc1F` [Example 179, 1-(2,6-difluorophenyl)-3-(4-(morpholin-4-yl)phenyl)-1,5-dihydro-4H-pyrazolo[4,3-c]pyridin-4-one]: the inhibition at 1 µM at JAK1 is 94%; at Tyk2, 100%.

In the case of `NC(=O)c1cc(-c2nn(-c3ccccn3)c3cc[nH]c(=O)c23)cs1` [Example 247, 4-(4-oxo-1-(pyridin-2-yl)-4,5-dihydro-1H-pyrazolo[4,3-c]pyridin-3-yl)thiophene-2-carboxamide], the results for the inhibition at 1 µM on JAK1 and on Tyk2 were 86% and 88%, respectively.

Take `O=c1[nH]cc(Cl)c2c1c(-c1csc(CN3CCOCC3)c1)nn2-c1c(F)cccc1F` [Example 203, 7-chloro-1-(2,6-difluorophenyl)-3-(5-(morpholin-4-ylmethyl)-3-thienyl)-1,5-dihydro-4H-pyrazolo[4,3-c]pyridin-4-one]: on JAK1 (setting [1]), the inhibition at 10 µM worked out at 81%. In addition, the inhibition at 1 µM at Tyk2 turned out to be 100%.

Consider `NC(=O)c1cc(-c2cn(C3CCCC3)c3c(CO)c[nH]c(=O)c23)cs1` [Example 40, 4-(1-cyclopentyl-7-(hydroxymethyl)-4-oxo-4,5-dihydro-1H-pyrrolo[3,2-c]pyridin-3-yl)thiophene-2-carboxamide], for which the inhibition at 1 µM at JAK1 and at Tyk2 was 78% in each case.

Consider `NC(=O)c1cc(-c2nn(C3CCC(O)(c4ccccc4)CC3)c3cc[nH]c(=O)c23)cs1` (centres unmarked) [Example 172, 4-(1-(4-hydroxy-4-phenylcyclohexyl)-4-oxo-4,5-dihydro-1H-pyrazolo[4,3-c]pyridin-3-yl)thiophene-2-carboxamide], for which the inhibition at 1 µM on JAK1 came out at 99%; on Tyk2, 97%.

Turning to `N#CCOc1ccc(-c2cn(C3CCCC3)c3c(C#N)c[nH]c(=O)c23)cc1` [Example 121, 3-(4-(cyanomethoxy)phenyl)-1-cyclopentyl-4-oxo-4,5-dihydro-1H-pyrrolo[3,2-c]pyridine-7-carbonitrile], the inhibition at 1 µM on JAK1 worked out at 87%; at Tyk2, 97%.

As for `CNC(=O)c1cc(-c2nn(-c3c(F)cccc3F)c3c(Br)c[nH]c(=O)c23)cs1` [Example 145, 4-(7-bromo-1-(2,6-difluorophenyl)-4-oxo-4,5-dihydro-1H-pyrazolo[4,3-c]pyridin-3-yl)-N-methylthiophene-2-carboxamide], the values for the inhibition at 1 µM at JAK1 and at Tyk2 were 99% and 100%, respectively.

Take `O=C1COCCN1c1ccc(-c2nn(-c3c(F)cccc3F)c3cc[nH]c(=O)c23)cc1` [Example 304, 1-(2,6-difluorophenyl)-3-(4-(3-oxomorpholin-4-yl)phenyl)-1,5-dihydro-4H-pyrazolo[4,3-c]pyridin-4-one]: the inhibition at 1 µM stood at 97% on JAK1 and 99% at Tyk2.

In the case of `COCCN(C)c1ccc(-c2nn(-c3c(F)cccc3F)c3c(Cl)c[nH]c(=O)c23)cc1` [Example 241, 7-chloro-1-(2,6-difluorophenyl)-3-(4-((2-methoxyethyl)(methyl)amino)phenyl)-1,5-dihydro-4H-pyrazolo[4,3-c]pyridin-4-one], the inhibition at 1 µM at JAK1 amounted to 53%; at Tyk2 it was 98%.

As for `N#Cc1c[nH]c(=O)c2c1c(C1CCCC1)cn2-c1csc(C(N)=O)c1` [Example 118, 4-(4-cyano-3-cyclopentyl-7-oxo-6,7-dihydro-1H-pyrrolo[2,3-c]pyridin-1-yl)thiophene-2-carboxamide], the inhibition at 1 µM on JAK1 came out at 94%; at Tyk2, 99%.

Take `NS(=O)(=O)c1cccc(Nc2nn(C3CCCC3)c3cc[nH]c(=O)c23)c1` [Example 284, 3-((1-cyclopentyl-4-oxo-4,5-dihydro-1H-pyrazolo[4,3-c]pyridin-3-yl)amino)benzenesulfonamide]: the inhibition at 1 µM on JAK1 came to 99%; on Tyk2 it was 96%.

Turning to `NC(=O)c1cccc(-c2nn(C3CCCC3)c3cc[nH]c(=O)c23)c1` [Example 143, 3-(1-cyclopentyl-4-oxo-4,5-dihydro-1H-pyrazolo[4,3-c]pyridin-3-yl)benzamide], the inhibition at 1 µM at JAK1 is 93%; at Tyk2 it was 92%.

As for `N#Cc1c[nH]c(=O)c2c(-c3cn[nH]c3)cn(C3CCCC3)c12` [Example 111, 1-cyclopentyl-4-oxo-3-(1H-pyrazol-4-yl)-4,5-dihydro-1H-pyrrolo[3,2-c]pyridine-7-carbonitrile], the inhibition at 1 µM on JAK1 is 96%; on Tyk2, 99%.

For `CCC(CC)n1cc(-c2csc(C#N)c2)c2c(=O)[nH]ccc21` [Example 9, 4-(4-oxo-1-(pentan-3-yl)-4,5-dihydro-1H-pyrrolo[3,2-c]pyridin-3-yl)thiophene-2-carbonitrile], the inhibition at 1 µM came to 97% on JAK1 and 93% on Tyk2.

With `CC1(Cn2nc(-c3ccc(S(N)(=O)=O)cc3)c3c(=O)[nH]ccc32)COC1` [Example 100, 4-(1-((3-methyloxetan-3-yl)methyl)-4-oxo-4,5-dihydro-1H-pyrazolo[4,3-c]pyridin-3-yl)benzenesulfonamide], the inhibition at 1 µM at JAK1 is 96%; at Tyk2, 77%.

Consider `NS(=O)(=O)c1ccc(-c2nn(C3CCCOC3)c3cc[nH]c(=O)c23)cc1` (centres unmarked) [Example 87, 4-(4-oxo-1-(tetrahydro-2H-pyran-3-yl)-4,5-dihydro-1H-pyrazolo[4,3-c]pyridin-3-yl)benzenesulfonamide], for which the inhibition at 1 µM on JAK1 is 99%; on Tyk2, 96%.

On to `O=c1[nH]ccc2c1c(-c1ccncc1)nn2C1CCCC1` [Example 44, 1-cyclopentyl-3-(pyridin-4-yl)-1,5-dihydro-4H-pyrazolo[4,3-c]pyridin-4-one], for which the results for the inhibition at 1 µM on JAK1 and at Tyk2 were 94% and 91%, respectively.

Consider `CC1(O)CCC(n2nc(-c3csc(C(N)=O)c3)c3c(=O)[nH]ccc32)CC1` (centres unmarked) [Example 199, 4-(1-(4-hydroxy-4-methylcyclohexyl)-4-oxo-4,5-dihydro-1H-pyrazolo[4,3-c]pyridin-3-yl)thiophene-2-carboxamide], for which, on JAK1 (setting [1]), the “Inhibitory rate (%) JAK1 10 μM” value came to 99%. In addition, at Tyk2, the “Inhibitory rate (%) Tyk2 1 μM” value turned out to be 100%.

`N#Cc1c[nH]c(=O)c2c(-c3ccsc3)cn(C3CCCC3)c12` [Example 106, 1-cyclopentyl-4-oxo-3-(3-thienyl)-4,5-dihydro-1H-pyrrolo[3,2-c]pyridine-7-carbonitrile]: the inhibition at 1 µM worked out at 91% at JAK1 and 98% on Tyk2.

For the molecule `CN(C)C(=O)c1cc(-c2nn(C3CCCC3)c3cc[nH]c(=O)c23)cs1` [Example 286, 4-(1-cyclopentyl-4-oxo-4,5-dihydro-1H-pyrazolo[4,3-c]pyridin-3-yl)-N,N-dimethylthiophene-2-carboxamide], the inhibition at 1 µM at JAK1 was 98%; at Tyk2, 97%.

On to `CC(C)(C(N)=O)c1ccc(-c2nn(-c3c(F)cccc3F)c3c(Cl)c[nH]c(=O)c23)cc1` [Example 188, 2-(4-(7-chloro-1-(2,6-difluorophenyl)-4-oxo-4,5-dihydro-1H-pyrazolo[4,3-c]pyridin-3-yl)phenyl)-2-methylpropanamide], for which the inhibition at 10 µM on JAK1 (setting [1]) worked out at 84%. Further, at Tyk2, the inhibition at 1 µM came out at 100%.
